# PMC9133015 (Nature Communications, 2022)
# “And” between values parts separate entries of the source, which are not always exact repeats. Equal values may be shown once. Read-outs that look alike come from different tables or passages of the source.
# Biological target: T1, DYRK2 (Homo sapiens, UniProt Q92630)
# T1 construct: purchased Reaction Biology Corporation (assay service)
# T1 sequence (Q92630 1-601): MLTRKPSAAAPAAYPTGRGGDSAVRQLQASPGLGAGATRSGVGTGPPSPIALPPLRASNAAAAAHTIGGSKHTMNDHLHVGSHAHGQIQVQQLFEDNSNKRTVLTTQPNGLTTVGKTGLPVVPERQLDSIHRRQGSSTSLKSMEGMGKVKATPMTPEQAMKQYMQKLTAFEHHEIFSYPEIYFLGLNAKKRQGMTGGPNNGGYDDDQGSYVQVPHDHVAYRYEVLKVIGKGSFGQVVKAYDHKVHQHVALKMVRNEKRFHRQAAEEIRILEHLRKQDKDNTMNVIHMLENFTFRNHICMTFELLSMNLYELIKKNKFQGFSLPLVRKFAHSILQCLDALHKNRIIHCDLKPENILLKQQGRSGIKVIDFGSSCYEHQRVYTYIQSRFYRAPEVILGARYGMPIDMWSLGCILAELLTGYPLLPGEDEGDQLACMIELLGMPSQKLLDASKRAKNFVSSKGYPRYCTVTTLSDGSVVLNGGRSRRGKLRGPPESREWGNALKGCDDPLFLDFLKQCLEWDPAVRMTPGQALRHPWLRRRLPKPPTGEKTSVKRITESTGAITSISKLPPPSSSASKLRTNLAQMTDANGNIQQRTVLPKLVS
# Test: DYRKs kinase activity assay (33P-ATP, DYRKtide substrate): DYRK2
# Assay type: biochemical
# Conditions: for inhibition at 0.000508053 µM / inhibition at 0.00152416 µM / inhibition at 0.00457247 µM / % Inhibition / inhibition at 0.0137174 µM / inhibition at 0.0411523 µM / inhibition at 0.123457 µM / inhibition at 0.37037 µM / inhibition at 1.11111 µM / inhibition at 3.33333 µM / inhibition at 10 µM: DYRK2 kinase, duplicate values; for inhibition at 0.00152416 µM / inhibition at 0.0137174 µM / inhibition at 0.0411523 µM / inhibition at 0.123457 µM / inhibition at 0.37037 µM / inhibition at 1.11111 µM / inhibition at 3.33333 µM / inhibition at 10 µM: read-out: % Inhibition; for DYRK2 inhibitory activity (in words): structural optimization of lead 12
# [1] = Supplementary Table 1, read-out: IC50 (μM), DYRK2 kinase
inhibition at 0.00152416 µM (Conc. 0.00152416 µM),inhibition at 0.00457247 µM (Conc. 0.00457247 µM),% Inhibition (Conc. 0.0137174 µM),inhibition at 0.0137174 µM (Conc. 0.0137174 µM),% Inhibition (Conc. 0.0411523 µM),inhibition at 0.0411523 µM (Conc. 0.0411523 µM),% Inhibition (Conc. 0.123457 µM),inhibition at 0.123457 µM (Conc. 0.123457 µM),% Inhibition (Conc. 0.37037 µM),inhibition at 0.37037 µM (Conc. 0.37037 µM),% Inhibition (Conc. 1.11111 µM),inhibition at 1.11111 µM (Conc. 1.11111 µM),% Inhibition (Conc. 3.33333 µM),inhibition at 3.33333 µM (Conc. 3.33333 µM),% Inhibition (Conc. 10 µM),inhibition at 10 µM (Conc. 10 µM),% Inhibition (Conc. 0.000508053 µM),% Inhibition (Conc. 0.00152416 µM),% Inhibition (Conc. 0.00457247 µM),IC50 [1],SMILES,other results
-1.56%,-2.27%,12.10%,9.69%,21.24%,19%,36.98%,36.4%,58.36%,56%,75.32%,75.1%,88.49%,88.2%,94.11%,93.9%,–,–,–,–,Cl.Fc1cnc(Nc2ccc(CN3CCNCC3)cn2)nc1-c1ccc2ncsc2c1 [Compound 18],inhibition at 0.000508053 µM (Conc. 0.000508053 µM): -3.69%
–,–,0.54%,0.53%,9.25%,8.33%,18.48%,18.1%,37.11%,36.6%,48.09%,47%,58.92%,57.6%,60.62%,59.4%,-1.98% and -2.03%,-0.44% and -0.45%,-0.11% and -0.23%,–,CC(C)(C)OC(=O)N1CCN(Cc2ccc(Nc3ncc(F)c(-c4ccc5ncsc5c4)n3)nc2)CC1 [Compound 17],DYRK2 inhibitory activity (in words): significantly decreased activity
–,–,-16.34% and -14.56%,–,-10.92% and -10.74%,–,-6.09% and -4.48%,–,-6.00% and -2.89%,–,-5.16% and -3.57%,–,2.31% and 3.77%,–,17.16% and 18.38%,–,-2.60% and -0.07%,-3.65% and -2.08%,-3.85% and -2.28%,> 10 µM,O=C(c1cccc(Cn2cc(Br)c([N+](=O)[O-])n2)c1)N1CCN(C(=O)c2ccco2)CC1 [Compound 8],–
–,–,7.11% and 4.92%,–,13.04% and 8.66%,–,25.55% and 23.66%,–,22.22% and 20.28%,–,26.61% and 24.74%,–,20.66% and 23.29%,–,27.83% and 25.98%,–,0.98% and -1.30%,14.00% and 9.63%,3.52% and 1.28%,> 10 µM,O=C(CSc1nnc2sc3ccccc3n12)N1CCN(C(=O)CSc2nnc3sc4ccccc4n23)CC1 [Compound 4],–
–,–,8.22%,6.53%,26.26%,23.1%,48.52%,47.2%,63.31%,64.2%,68.60%,68.6%,73.48%,73.6%,77.29%,76.9%,0.29% and 3.35%,-2.64% and 1.62%,1.68% and 3.59%,–,CCN1CCN(Cc2ccc(Nc3ncc(F)c(-c4ccc5ncsc5c4)n3)nc2)CC1 [Compound 16],–
1.6%,–,5.42% and 2.62%,–,-2.71% and -6.99%,–,2.56% and -2.91%,–,3.14% and 0.34%,–,-1.20% and -1.05%,–,2.76%,2.35%,7.55%,7.66%,-2.37% and 0.19%,1.48%,3.31% and -4.82%,–,CCN1CCN(C(=O)c2ccc(Nc3nc(-c4ccc5nc(N(C)C)sc5c4)c4sccc4n3)nc2)CC1 [Compound 27],DYRK2 inhibitory activity (in words): no inhibition
–,–,5.42% and 7.24%,–,-2.71% and 2.20%,–,2.56% and 6.98%,–,3.14% and 5.17%,–,-1.20% and 3.57%,–,2.35% and 4.46%,–,7.66% and 11.60%,–,-4.08% and 2.50%,1.60% and 6.11%,3.31% and 7.66%,> 10 µM,CCOC(=O)CC1=NN(c2ccccc2)C(=O)C1=c1sc(=C2Sc3ccccc3N2C)c(=O)n1CC [Compound 6],–
20.2%,32.2%,41.99%,41.4%,56.16%,55.9%,70.45%,70.4%,–,84.9%,–,92.2%,–,95.8%,–,96.2%,9.47%,18.47%,32.91%,–,CCN1CCN(C(=O)c2ccc(Nc3ncc(F)c(-c4ccc5nc(C)sc5c4)n3)nc2)CC1 [Compound 23],inhibition at 0.000508053 µM (Conc. 0.000508053 µM): 9.2%; IC50 (read-out: DYRK2 IC50): 0.022 µM
–,–,5.71% and 7.69%,–,-2.86% and -2.73%,–,2.70% and 2.58%,–,3.31% and 5.45%,–,-1.26% and -1.20%,–,2.47% and 2.36%,–,8.07% and 7.70%,–,-2.50% and -2.39%,-0.71% and 1.61%,3.49% and 3.33%,> 10 µM,Cc1ccc(CN(Cc2ccc(C=NNC(=O)c3c(C)nc4sccn34)o2)S(=O)(=O)c2ccc(C)cc2)cc1 [Compound 7],–
–,–,10.53% and 13.70%,–,5.97% and 6.86%,–,12.38% and 8.48%,–,14.58% and 13.01%,–,21.59% and 24.67%,–,29.05% and 32.01%,–,31.39% and 34.31%,–,1.82% and 2.74%,3.66% and 2.25%,7.30% and 8.12%,> 10 µM,Cn1c(CN2CCN(C(=O)C3CCCCC3)CC2)nc2cc(NC(=O)Nc3ccccc3)ccc21 [Compound 13],–
12.2%,13.8%,16.84%,14%,38.81%,36.7%,56.81%,55.4%,75.73%,74%,88.57%,86.9%,94.50%,95.3%,95.74%,96.6%,9.05%,8.33%,11.99%,–,Cl.Fc1cnc(Nc2ccc(N3CCNCC3)cn2)nc1-c1ccc2ncsc2c1 [Compound 21],inhibition at 0.000508053 µM (Conc. 0.000508053 µM): 8.81%; IC50 (read-out: DYRK2 IC50): 0.085 µM
0.87%,2.31%,–,3.91%,–,13.2%,26.76%,25%,–,35.1%,58.80%,58.5%,75.98%,76.2%,87.41%,87.2%,-2.89%,–,2.13%,–,CCN1CCN(C(=O)c2cnc(Nc3ncc(F)c(-c4ccc5ncsc5c4)n3)nc2)CC1 [Compound 22],IC50 (read-out: DYRK2 IC50): 0.697 µM
–,–,2.76% and 2.77%,–,5.64% and 5.65%,–,2.54%,–,6.34% and 2.72%,–,14.05% and 16.10%,–,22.86% and 21.57%,–,38.49% and 39.53%,–,-0.64% and -0.50%,-10.49% and -4.61%,-7.80% and -6.47%,> 10 µM,O=C(COc1ccccc1-c1ccnn1-c1ccccc1)NN=Cc1coc2ccc(Cl)cc2c1=O [Compound 11],–
